Measured values published in patent publication US8921267B2, “Safening 6-(trisubstituted phenyl)-4-amino-2-pyridinecarboxylate herbicide injury on cereal crops” (Dow AgroSciences LLC, priority 2008, dated 2014).

Legend:
[1] = system: chickweed (Stellaria media L; STEME); assay: Postemergence herbicidal activity, greenhouse, visual injury: chickweed; type: in vivo; set-up: key: visual injury, 0–100%: 0 = no injury, 100 = complete kill
Description: (§1) Evaluation of Postemergence Herbicidal Safening in Cereal Crops
(§2) Seeds of the desired test plant species were planted in Sun Gro MetroMix® 306 planting mixture, which typically has a pH of 6.0 to 6.8 and an organic matter content of about 30 percent, in plastic pots with a surface area of 103.2 square centimeters (cm^2). When required to ensure good germination and healthy plants, a fungicide treatment and/or other chemical or physical treatment was applied. The plants were grown for 7-36 days (d) in a greenhouse with an approximate 14-hour (h) photoperiod which was maintained at about 18° C. during the day and 17° C. during the night. Nutrients and water were added on a regular basis and supplemental lighting was provided with overhead metal halide 1000-Watt lamps as necessary. The plants were employed for testing when they reached the second or third true leaf stage.
(§3) Weighed amounts of esters (methyl) or salts (TEA [triethylammonium], K [potassium]) of 4-amino-3-chloro-6-(4-chloro-2-fluoro-3-methoxyphenyl)pyridine-2-carboxylic acid (Compound 1) were dissolved in a volume of 97:3 volume/volume (v/v) acetone/dimethylsulfoxide (DMSO) to obtain stock solutions. […] The concentrated stock solutions were diluted with an aqueous mixture of 1.5% v/v of Agri-dex crop oil concentrate to provide the appropriate application rates. Compound requirements are based upon a 12 mL application volume at a rate of 187 liters per hectare (L/ha). Stocks solutions of the safeners were prepared following the same procedure. Spray solutions of the safeners and experimental compound mixtures were prepared by adding the stock solutions to the appropriate amount of dilution solution to form a 12 mL spray solution with active ingredients in two-way combinations. Formulated compounds were applied to the plant material with an overhead Mandel track sprayer equipped with 8002E nozzles calibrated to deliver 187 L/ha over an application area of 0.503 square meters (m^2) at a spray height of 18 inches (43 centimeters (cm)) above average plant canopy. Control plants were sprayed in the same manner with the solvent blank.
(§4) The treated plants and control plants were placed in a greenhouse as described above and watered by sub-irrigation to prevent wash-off of the test compounds. After 20-22 d, the condition of the test plants as compared with that of the control plants was determined visually and scored on a scale of 0 to 100 percent where 0 corresponds to no injury and 100 corresponds to complete kill.
(§5) Colby's equation was used to determine the herbicidal effects expected from the mixtures (Colby, S. R. Calculation of the synergistic and antagonistic response of herbicide combinations. Weeds 1967, 15, 20-22.).
(§6) The following equation was used to calculate the expected activity of mixtures containing two active ingredients, A and B: Expected=A+B−(A×B/100)
(§7) A=observed efficacy of active ingredient A at the same concentration as used in the mixture.
(§8) B=observed efficacy of active ingredient B at the same concentration as used in the mixture.

[2] = system: wild buckwheat (Polygonum convolvulus L; POLCO); assay: Postemergence herbicidal activity, greenhouse, visual injury: wild buckwheat; type: in vivo
Description: as §1, §2, §3, §4, §5, §6, §7, §8

[3] = system: corn poppy (Papaver rhoeas L; PAPRH); assay: Postemergence herbicidal activity, greenhouse, visual injury: corn poppy; type: in vivo
Description: as §1, §2, §3, §4, §5, §6, §7, §8

[4] = system: wheat (Triticum aestivum L; TRZAS); assay: Postemergence herbicidal safening, greenhouse, visual injury: wheat; type: in vivo
Description: as §1, §2, §3, §4, §5, §6, §7, §8

[5] = system: wild pansy (Viola tricolor L; VIOTR); assay: Postemergence herbicidal activity, greenhouse, visual injury: wild pansy; type: in vivo; set-up: key: visual injury, 0–100%: 0 = no injury, 100 = complete kill
Description: as §1, §2, §3, §4, §5, §6, §7, §8

[6] = system: wheat (Triticum aestivum L; TRZAW); assay: Postemergence herbicidal safening, greenhouse, visual injury: wheat (TRZAW); type: in vivo
Description: as §1, §2, §3, §4, §5, §6, §7, §8

[7] = system: purple deadnettle (Lamium purpureum L; LAMPU); assay: Postemergence herbicidal activity, greenhouse, visual injury: purple deadnettle; type: in vivo; set-up: key: visual injury, 0–100%: 0 = no injury, 100 = complete kill
Description: as §1, §2, §3, §4, §5, §6, §7, §8

[8] = system: Russian thistle (Salsola iberica L; SASKR); assay: Postemergence herbicidal activity, greenhouse, visual injury: Russian thistle; type: in vivo; set-up: key: visual injury, 0–100%: 0 = no injury, 100 = complete kill
Description: as §1, §2, §3, §4, §5, §6, §7, §8

[9] = system: barley (HORVW); assay: Postemergence herbicidal safening, greenhouse, visual injury: barley (HORVW)
[10] = system: durum wheat (Triticum durum L; TRZDU); assay: Postemergence herbicidal safening, greenhouse, visual injury: durum wheat; type: in vivo
Description: as §1, §2, §3, §4, §5, §6, §7, §8

[11] = system: cleavers (Galium aparine L; GALAP); assay: Postemergence herbicidal activity, greenhouse, visual injury: cleavers; type: in vivo; set-up: key: visual injury, 0–100%: 0 = no injury, 100 = complete kill
Description: as §1, §2, §3, §4, §5, §6, §7, §8

[12] = system: barley (Hordeum vulgare L; HORVS); assay: Postemergence herbicidal safening, greenhouse, visual injury: barley; type: in vivo
Description: as §1, §2, §3, §4, §5, §6, §7, §8

[13] = system: bird's-eye speedwell (Veronica persica L; VERPE); assay: Postemergence herbicidal activity, greenhouse, visual injury: bird's-eye speedwell; type: in vivo; set-up: key: visual injury, 0–100%: 0 = no injury, 100 = complete kill
Description: as §1, §2, §3, §4, §5, §6, §7, §8

NC(=O)NS(=O)(=O)c1ccccc1Cl [Compound 2-CBSU, N-(aminocarbonyl)-2-chlorobenzenesulfonamide, reference compound]
0%: STEME Ob ([1]; applied alone at 17.5 g/ha) | STEME Ob ([1]; applied alone at 35 g/ha) | STEME Ob ([1]; applied alone at 70 g/ha) | STEME Ob ([1]; applied alone at 140 g/ha) | POLCO Ob ([2]; applied alone at 17.5 g/ha) | POLCO Ob ([2]; applied alone at 35 g/ha) | POLCO Ob ([2]; applied alone at 70 g/ha) | POLCO Ob ([2]; applied alone at 140 g/ha) | PAPRH Ob ([3]; applied alone at 17.5 g/ha) | PAPRH Ob ([3]; applied alone at 35 g/ha) | PAPRH Ob ([3]; applied alone at 70 g/ha) | PAPRH Ob ([3]; applied alone at 140 g/ha) | TRZAS Ob ([4]; applied alone at 17.5 g/ha) | TRZAS Ob ([4]; applied alone at 35 g/ha) | TRZAS Ob ([4]; applied alone at 70 g/ha) | TRZAS Ob ([4]; applied alone at 140 g/ha) | VIOTR Ob ([5]; applied alone at 17.5 g/ha) | VIOTR Ob ([5]; applied alone at 35 g/ha) | VIOTR Ob ([5]; applied alone at 70 g/ha) | VIOTR Ob ([5]; applied alone at 140 g/ha) | TRZAW Ob (Observed values) ([6]; safener 4.4 g/ha alone) | TRZAW Ob (Observed values) ([6]; safener 8.8 g/ha alone) | TRZAW Ob (Observed values) ([6]; safener 17.5 g/ha alone) | TRZAW Ob (Observed values) ([6]; safener 35 g/ha alone) | SASKR Ob ([8]; applied alone at 17.5 g/ha) | SASKR Ob ([8]; applied alone at 35 g/ha) | SASKR Ob ([8]; applied alone at 70 g/ha) | SASKR Ob ([8]; applied alone at 140 g/ha) | HORVW Ob (Observed values) ([9]; safener 4.4 g/ha alone) | HORVW Ob (Observed values) ([9]; safener 8.8 g/ha alone) | HORVW Ob (Observed values) ([9]; safener 17.5 g/ha alone) | HORVW Ob (Observed values) ([9]; safener 35 g/ha alone) | TRZDU Ob (Observed values) ([10]; safener 4.4 g/ha alone) | TRZDU Ob (Observed values) ([10]; safener 8.8 g/ha alone) | TRZDU Ob (Observed values) ([10]; safener 17.5 g/ha alone) | TRZDU Ob (Observed values) ([10]; safener 35 g/ha alone) | GALAP Ob ([11]; applied alone at 17.5 g/ha) | GALAP Ob ([11]; applied alone at 35 g/ha) | GALAP Ob ([11]; applied alone at 70 g/ha) | GALAP Ob ([11]; applied alone at 140 g/ha) | HORVS Ob ([12]; applied alone at 17.5 g/ha) | HORVS Ob ([12]; applied alone at 35 g/ha) | HORVS Ob ([12]; applied alone at 70 g/ha) | HORVS Ob ([12]; applied alone at 140 g/ha) | VERPE Ob ([13]; applied alone at 17.5 g/ha) | VERPE Ob ([13]; applied alone at 35 g/ha) | VERPE Ob ([13]; applied alone at 70 g/ha) | VERPE Ob ([13]; applied alone at 140 g/ha)
0: PAPRH Ob (Observed values) ([3]; safener 4.4 g/ha alone) | PAPRH Ob (Observed values) ([3]; safener 8.8 g/ha alone) | PAPRH Ob (Observed values) ([3]; safener 17.5 g/ha alone) | PAPRH Ob (Observed values) ([3]; safener 35 g/ha alone) | LAMPU Ob (Observed values) ([7]; safener 4.4 g/ha alone) | LAMPU Ob (Observed values) ([7]; safener 8.8 g/ha alone) | LAMPU Ob (Observed values) ([7]; safener 17.5 g/ha alone) | LAMPU Ob (Observed values) ([7]; safener 35 g/ha alone)
